Patent US20130281504A1, “Reduction of Microglia-Mediated Neurotoxicity by KCa3.1 Inhibition” (THE REGENTS OF THE UNIVERSITY OF CALIFORNIA, priority 2010, published 2013)

How the values were obtained:
Assay type in all cases: cell-based, mouse
hippocampal neurons = assay: Indirect neurotoxicity of conditioned medium from AβO-treated microglia on hippocampal neurons; details: 25% CM, 24 hrs
Description: Cultures were washed extensively and changed to the Neurobasal medium with B27 supplement (NB/B27, Invitrogen) without serum and cultured for another 24 hrs. The NB/B27-based microglia CMs were collected, briefly centrifuged, and used immediately or frozen for future uses.
Hippocampal neuronal cultures were prepared from newborn wild type C57BL/6J mice according to the method of Xiang et al (26). Neurons were cultured in NB/B27 at a density of 2.5×10^5 cells/well in 12-well plates or 8×10^5 cells/well in 6-well plates for at least 14 days before they were treated with microglia CM.
Hippocampal neurons were prepared as described above and were plated onto 96-well plate at a density of 6×10^4 cells/well and cultured for 14 days. CM from microglia cultures was added onto neurons with indicated dilutions, and cultures were incubated for 24 hrs.
For immunofluorescent staining of neurons, cultures were fixed in 4% paraformaldehyde and stained with anti-PSD95 (1:200, Cell Signaling), anti-MAP2 (1:500, Chemicon) and anti-acetylated α-tubulin (1:250, Zymed). […] Immunostained images were observed under a Nikon Eclipse E600 microscope and photographed by a digital camera (SPOT RTke, SPOT Diagnostics, Sterling Heights, Mich.).
For quantification of the PSD95-immunoreactive puncta along the dendrites, photomicrographs of PSD95 immunostained cultures were randomly taken from each culture condition. The images were transformed to 8 bit gray scale and analyzed with the Image J program. The number of puncta in each photomicrograph was counted and normalized by dendritic length. The photography and analysis were conducted in an investigator-blinded manner

microglia = assay: AβO-induced microglia proliferation/activation (cell number); details: soluble AD hippocampus extracts
hippocampal slices = assay: AβO-treated organotypic hippocampal slice cultures
Description: Hippocampal slice cultures (400 μm-thick) were prepared from 7-day-old C57BL/6J mice as previously described (25) and cultured for 10 days in vitro before use. Neuronal damage in the slices was monitored by PI uptake following Bernardino et al (27). PI itself is not toxic to neurons (27). […] After 24 hrs, the slices were observed under a Nikon Eclipse E600 microscope and the red (630 nm) fluorescence emitted by PI taken up by damaged cells was photographed by a digital camera (SPOT RTke, SPOT Diagnostics, Sterling Heights, Mich.) with fixed exposure time.
For immunofluorescent staining of neurons, cultures were fixed in 4% paraformaldehyde and stained with anti-PSD95 (1:200, Cell Signaling), anti-MAP2 (1:500, Chemicon) and anti-acetylated α-tubulin (1:250, Zymed). For immunofluorescent staining of microglia, cultures or hippocampal slices were fixed in 4% paraformaldehyde and stained with anti-IBA1 (1:500, Wako Chemicals USA), anti-SRA (E-20, 1:200, Santa Cruz Biotechnology), and anti-CD11b (1:200, AbD Serotec USA, Raleigh, N.C.). The fixed cells or hippocampal slices were incubated with antibodies for overnight at 4° C. followed by secondary Alexa488 conjugated anti-mouse or Alexa568 conjugated anti-rabbit antibody (1:700, Molecular probes). Immunostained images were observed under a Nikon Eclipse E600 microscope and photographed by a digital camera (SPOT RTke, SPOT Diagnostics, Sterling Heights, Mich.).
To obtain lysates, cells or tissues were washed with ice-cold PBS and incubated with a buffer containing 50 mmol/L Tris-HCl (pH 7.4), 150 mmol/L NaCl, 2% SDS, proteinase inhibitor cocktail (Sigma), and phosphatase inhibitor cocktail (Sigma). Lysates were briefly sonncated and cleared by centrifugation at 50,000 rpm for 10 min. Equivalent amounts of protein were analyzed by Tris/HCL gel electrophoresis. Proteins were transferred to polyvinylidene difluoride membranes and probed with antibodies. Visualization was performed using enhanced chemiluminescence (ECL, Amersham Pharmacia, Piscataway, N.J.).
Conditioned medium collected from microglia cultures (1×10^5/0.75 cm^2) and hippocampal slices treated with Aβ for 24 hrs were analyzed by the Nitric Oxide Quantization Kit according to the protocol of the manufacturer (Active Motif, Carlsbad, Calif.). Data were normalized to the amount of total protein.

## Clc1ccccc1C(c1ccccc1)(c1ccccc1)n1cccn1 [TRAM-34, 1-[(2-chlorophenyl)diphenylmethyl]-1H-pyrazole]
Hippocampal neurons
  dendritic morphology of neurons after CM from AβO-treated microglia co-incubated with inhibitor: did not alter the dendritic morphology
Hippocampal neurons; Western blot
  levels of Ac-TN, MAP2, PSD95, and GRIP1 after CM from AβO-treated microglia co-incubated with inhibitor: did not cause significant decreases
Hippocampal neurons; microglia co-treated with 20 μM doxycycline or 1 μM TRAM-34, FIG. 6D
  AβO-CM-induced reduction of PSD95-immunoreactive puncta: prevented
microglia
  microglia activation / mitogenic effect induced by human brain AβO: blocked
Hippocampal slices; 20 nM AβO 24 hrs, co-treatment, FIG. 7A, 7C
  AβO-induced microglia activation in hippocampal slices: substantially ameliorated
Hippocampal slices; 20 μM doxycycline, 1 μM TRAM-34, FIG. 7B
  AβO-induced NO production from hippocampal slices: prevented
Hippocampal slices; 20 μM doxycycline, 1 μM TRAM-34, FIG. 7C
  AβO-enhanced PI uptake (neuronal damage) in hippocampal slices: ameliorated
Hippocampal slices; co-treatment, FIG. 7D
  AβO-induced reduction of dendritic and post-synaptic proteins in hippocampal slices: substantially ameliorated
Hippocampal slices; without AβO
  NO production from hippocampal slices, compound alone: did not affect NO production
